{
  "source": "patent US20260008801A1",
  "about": "“BIO-BASED SURFACTANTS DERIVED FROM CARBOHYDRATES” (COÖPERATIE KONINKLIJKE COSUN U.A., priority 2022, published 2026)",
  "key": {"[1]": {"assay": "Surface tension measurements, Wilhelmy plate (surface tension, CMC)", "type": "physicochemical", "protocol": "Surface tension measurements were performed with a Biolin Scientific Sigma701 automatic tension meter equipped with a Wilhelmy plate made of platinum (±0.5 mN/m). […] The number of experimental points is related to the compound's/surfactant's solubility and available quantity. All compound/surfactant solutions were allowed to stand 12 h before being measured. The platinum plate was thoroughly cleaned with demi water and flame-dried before each measurement. The CMC of each compound/surfactant was determined at the minimum of a breakpoint of a conventional plot of surface tension versus compound/surfactant concentration. DCMC was obtained by acquiring the surface tension at the CMC. The pC20 value was determined by taking the minus log of the concentration compound/surfactant at a surface tension of 52 mN/m."}, "[2]": {"assay": "Foaming power and stability, Ultra-Turrax, 0.4% aq. surfactant", "type": "physicochemical", "details": "for Foamability (mL) after (min) 1 / Foamability (mL) after (min) 5 / Foamability (mL) after (min) 10: Table E5.2; for Foamability (mL) after (min) 1: foam volume after 1 min; for Foamability (mL) after (min) 5: foam volume after 5 min; for Foamability (mL) after (min) 10: foam volume after 10 min", "protocol": "Foaming power was also tested at room temperature with 5 mL of 0.4% aq. surfactant (20 mg) solution in a 50 mL measuring cylinder. After performing the Ultra-Turrax (a registered trademark for a high-performance dispersing instrument) for 20 seconds (8000 rpm), the initial height of the foam was measured for foam height. (volume in mL). Every time step of, 1, 3, 5, 10, 30, 60 minutes was noted. In addition, after 24 hours the stability was checked. Particularly, foaming power and stability of the surfactants were performed using an IKA Ultra-Turrax T25 with an 18 G dispersing element. At room temperature, an aqueous solution of 5 mL 0.4% surfactant in a 50 mL measuring cylinder (2.20 cm diameter) was mixed with the Ultra-Turrax for 20 seconds at 8000 rpm. The foam height (volume in mL) was denoted for 0, 1, 3, 5, 10, 30, 60 min and 24 hours. In addition, after 24 hours the stability was checked."}, "Zein": {"tested_on": "Zein", "assay": "Zein solubilisation (skin irritation potential)", "details": "SDS set as 100; for zein score / skin irritation potential value: pH 7", "protocol": "Zein solubilisation was measured to determine the irritation of the surfactants. Zein is a simple protein found in corn. It is a very simple mimic of skin protein, the more solubilised by your material the harsher the potential to irritate and dry the skin. This method is a quick screen and provides indicative data. The procedure is 1) Weight 2-2.5 ml Eppendorf's on a 4 dp balance. 2) Weight out as accurately as possible 70 mg of Zein. 3) Add to the Eppendorf and reweigh. 4) Make your surfactant dilutions. 5) Add 1 ml of the surfactant dilution to the Eppendorf. 6) Place this on a rotary mixer for 20 mins at 20 rpm at RT. 7) Remove and centrifuge for 4 mins at highest speed available on a micro centrifuge 8) Discard the supernatant making sure as much of it possible is removed. 9) Repeat with water, centrifuge and discard supernatant. 10) With the Eppendorf lid open, place at 50° C. overnight to dry (48 hours required). 11) Re-weigh the next day. 12) Calculate the amount of Zein solubilised. The obtained data allows comparison of surfactants and their harshness to skin. Decisions for in vivo testing can be based on good Zein results.\nThe skin irritation potential of the surfactants was investigated using zein solubilisation, which is a commonly known assay. Zein is a very simple mimic of skin protein. The more zein is solubilized by the surfactant the harsher the potential to irritate and dry the human skin. […] The surfactants were measured at different pH values, a pH of 4-5, 7 and at their original pH as is."}, "[3]": {"assay": "Foaming abilities, 1% compound solutions shaken by hand", "type": "physicochemical", "set-up": "key to FOAM: −: no foam formation; +: low foam formation; ++: moderate foam formation; +++: strong foam formation", "protocol": "Foaming abilities were evaluated at room temperature by shaking 1% compound solutions (2 ml) of pH 3, 7, and 12 by hand for 10 s. The pH of each solution was assessed with a pH meter at room temperature. […] The foam heights at the initial time were compared to one another after which the foaming abilities were classified according to no foam formation (−), low foam formation (+), moderate foam formation (++), and strong foam formation (+++)."}, "[4]": {"assay": "Solubility in water (excess of compound in 4 ml demi water)", "type": "physicochemical", "details": "for Solubility: Table E5.2, water", "protocol": "Solubility is preferably solubility in aqueous solution, more preferably solubility in water, most preferably solubility in demineralised water. A skilled person knows how to assess such solubility.\nSolubility in water was determined by preparing mixtures of an excess of compound dispersed in 4 ml demi water using a vortex at maximum speed for 1 min. […] 1 ml of the mixture was concentrated in vacuo to yield a solid. The mass of the solid was determined in mg to calculate the solubility in percentage by dividing by ten."}, "[5]": {"tested_on": "activated sludge from a municipal wastewater treatment plant (WWTP)", "assay": "Biodegradability, OECD 301A DOC Die-Away Test (adjusted)", "details": "inoculum with compound and sodium acetate", "description": "Biodegradability of compounds was assessed. The compound is added to an inoculate of activated sludge from a municipal wastewater treatment plant (WWTP). The experiment relies on the basic principles of the 301A DOC Die-Away Test described in the OECD guidelines for readily biodegradable substances. A small adjustment was made where the measuring is not done in conical flasks but, instead, in serum vials closed with butylrubber stoppers. This allowed measurement of the evolution of CO2 and O2 over time. In general, the experiment involves the experimental incubation (inoculum and compound), along with a blank control (inoculum no compound), a positive control (inoculum and sodium acetate), and controls for abiotic degradation (compound in medium), adsorption (compound with sterilized inoculum), and toxicity (inoculum with compound and sodium acetate).\nThe fresh sludge was conditioned overnight by bubbling with air at room temperature. […]\nIncubations were prepared containing approximately 70 mg/L surfactant and 3 ml sludge in a final volume of 30 ml mineral medium in a borosilicate serum vial crimp-sealed with a butyl rubber stopper. […] 1 ml samples were taken weekly for surfactant quantification and centrifuged 5 min at 20.000×g. […] CO2 was analyzed by measuring headspace gas on an Agilent 8890A/5977B GC-MS equipped with an Agilent 6 FT Porapak Q 80/10 column. […]"}},
  "data": [
    {"compound": "CCCCCCCCN(C)C[C@H](O)[C@@H](O)[C@@H](O)[C@H](O)C(=O)O", "note": "[Compound 31, N-methyl-N-octyl-D-galacturonic acid amine]", "values": [
      {"measurement": "CMC (%)", "setting": "[1]; Table E5", "result": 1.15, "unit": "%"},
      {"measurement": "SURFACE TENSION", "setting": "[1]; Table E5, room temperature, pH 7", "result": 32.067, "unit": "mN/m"},
      {"measurement": "CMC (%)", "setting": "[1]; Table E5.2", "result": 1.15, "unit": "%"},
      {"measurement": "Surface tension (nM/m)", "setting": "[1]; Table E5.2", "result": 32.1, "unit": "mN/m"},
      {"measurement": "SURFACE TENSION", "setting": "[1]; running text b302", "result": 31.5, "unit": "mN/m"},
      {"measurement": "Foamability (mL) after (min) 1", "setting": "[2]", "result": 4.5, "unit": "mL"},
      {"measurement": "Foamability (mL) after (min) 5", "setting": "[2]", "result": 4, "unit": "mL"},
      {"measurement": "Foamability (mL) after (min) 10", "setting": "[2]", "result": 4, "unit": "mL"},
      {"measurement": "zein score / skin irritation potential value", "setting": "Zein", "result": 1},
      {"measurement": "FOAM", "setting": "[3]; Table E5, pH > 7.3", "result": "++"},
      {"measurement": "solubility in H2O", "setting": "[4]", "result": 15, "unit": "%"},
      {"measurement": "SOLUBILITY (H2O)", "setting": "[4]; Table E5", "result": 15, "unit": "%"},
      {"measurement": "Solubility", "setting": "[4]", "result": 15, "unit": "%"},
      {"measurement": "inhibition of breakdown of acetate (toxicity control)", "setting": "[5]", "result": "did not inhibit"}
    ]},
    {"compound": "sodium laureth sulfate [SLES, reference compound]", "values": [
      {"measurement": "concentration at which the surface tension is reached", "setting": "[1]", "result": 0.02, "unit": "%"},
      {"measurement": "CMC (%)", "setting": "[1]; Table E5.2", "result": 0.2, "unit": "%"},
      {"measurement": "Surface tension (nM/m)", "setting": "[1]; Table E5.2", "result": 33.8, "unit": "mN/m"},
      {"measurement": "CMC (%)", "setting": "[1]; Table E7", "result": 0.2, "unit": "%"},
      {"measurement": "SURFACE TENSION", "setting": "[1]; Table E7", "result": 36.5, "unit": "mN/m"},
      {"measurement": "CMC (%)", "setting": "[1]; Table E8", "result": 0.2, "unit": "%"},
      {"measurement": "Surface tension (nM/m)", "setting": "[1]; Table E8", "result": 33.8, "unit": "mN/m"},
      {"measurement": "Foamability (mL) after (min) 1", "setting": "[2]", "result": 4, "unit": "mL"},
      {"measurement": "Foamability (mL) after (min) 5", "setting": "[2]", "result": 4, "unit": "mL"},
      {"measurement": "Foamability (mL) after (min) 10", "setting": "[2]", "result": 3, "unit": "mL"},
      {"measurement": "Foamability 1 min", "setting": "[2]; Table E8, after 1 min", "result": 4, "unit": "mL"},
      {"measurement": "Foamability 5 min", "setting": "[2]; Table E8, after 5 min", "result": 4, "unit": "mL"},
      {"measurement": "Foamability 30 min", "setting": "[2]; Table E8, after 30 min", "result": 3, "unit": "mL"},
      {"measurement": "zein score / skin irritation potential value", "setting": "Zein", "result": 49},
      {"measurement": "skin irritation potential value (zein)", "setting": "Zein; pH11", "result": "> 49"},
      {"measurement": "FOAM", "setting": "[3]; Table E7", "result": "++"},
      {"measurement": "Solubility", "setting": "[4]", "result": 28, "unit": "%"},
      {"measurement": "SOLUBILITY (H2O)", "setting": "[4]; Table E7, commercially available surfactants", "result": "Yes"},
      {"measurement": "Solubility (%)", "setting": "[4]; Table E8", "result": 28, "unit": "%"}
    ]}
  ]
}
